US20210379210A1, “RADIOLIGANDS FOR IMAGING THE LPA1 RECEPTOR” (BRISTOL-MYERS SQUIBB COMPANY, priority 2018, published 2021)
Several values for one entry are separate records, joined by “and”; a condition that tells them apart may be missing. Equal entries are not always repeated. Where two headings read alike, the source gives them in different places.

What was measured:
[1] = In-vivo PET imaging, lung uptake in wild type and bleomycin treated rats; parameters: species or system rat; conditions: Sprague Dawley, rat, lung, intravenous
Experimental: (§1) [^18F]-(1S,3S)-3-(((6-(5-((((4-(fluoro)butyl)(methyl)carbamoyl)oxy)methyl)-1-methyl-1H-1,2,3-triazol-4-yl)-2-methylpyridin-3-yl)oxy)cyclohexane-1-carboxylic acid was tested to confirm its properties, specificity and targeting of the LPA1 receptor in aged-matched wild type (Sprague Dawley rat, Charles River Laboratory, PA) and bleomycin-induced pulmonary fibrosis rat models. The bleomycin-induced pulmonary fibrosis rat model was generated in anesthetized rats that were administered bleomycin (2 μL/g) via oropharyngeal instillation. For oropharyngeal instillation, anesthetized rats (isoflurane, 4% in 100% 02) were placed on a slanted board/tilting workstation and bleomycin was dripped onto the vocal cords, facilitating aspiration. Rats were then returned to their cages until they fully recovered from anesthesia and were monitored daily for the duration of the experiment. In this experiment, the [^18F]-labeled LPA1 antagonist, produced as described in the above Examples, was tested for its ability to discriminate between normal lung in wild type rats and increased lung LPA1 expression in the bleomycin rat disease model. The bleomycin treated rats were used at 14 and 15 days post bleomycin treatment. PET images were acquired at 14 days (baseline) and 15 days (blocking with a 10 mg/kg oral dose of an LPA1 antagonist administered 30 minutes before PET scan). Two groups of rats were used in the PET imaging study—aged matched wild type rats (Group 1, n=4) and bleomycin treated rats (Group 2, n=4). All animals received a baseline PET imaging scan and a repeat PET imaging scan following a single 10 mg/kg oral dose of an LPA1 antagonist. For PET image acquisition, rats were placed in an anesthetic induction chamber and 3% isoflurane inhalant anesthesia was delivered in 100% O2 at a rate of 1-1.5 L/min. Once sedated, the rats were removed from the induction chamber and placed into a plexiglass 2-chamber holder (custom-made by BMS-Applied Biotechnology group) within the gantry of the PET system (microPET® F220™, Siemens Preclinical Solutions, Knoxville, Tenn.) where they remained for the duration of the study. Anesthesia was maintained with 1-1.5% isoflurane inhalant anesthesia delivered in 100% 02 at a rate of 2 L/min via the nose-cone. Animals were kept warm using an external standalone temperature regulating unit (M2M Imaging Corp) to prevent hypothermia during imaging. Rat respiration was continuously monitored during imaging procedures and isoflurane was adjusted dependent on depth of anesthesia. A 10-minute transmission image was first acquired using a ^57Co point source for the purpose of attenuation correction of the final PET images and confirmation of lung localization for region of interest (ROI) analysis. The scanning region was located beginning at the neck area and extending toward the hind limbs of each animal in order to place the lungs within the 7.6 cm microPET system axial field of view (FOV). Upon completion of the transmission scan, each rat received administration of between 19.5-29.7 MBq (542-803 μCi) of [^18F]-(1S,3S)-3-(((6-(5-((((4-(fluoro)butyl)(methyl) carbamoyl)oxy)methyl)-1-methyl-1H-1,2,3-triazol-4-yl)-2-methylpyridin-3-yl)oxy)cyclohexane-1-carboxylic acid tracer via tail vein catheter followed by a 2 hour dynamic PET emission scan. For blocking studies, the same protocol was flowed 30 minutes after a 10 mg/kg oral dose of an LPA1 antagonist. Images were reconstructed using a maximum a posteriori (MAP) algorithm with attenuation correction using the collected transmission images and corrected for radioisotope decay. The PET images were then co-registered with corresponding transmission images using anatomical landmarks (air in lung) and boundaries of the animal holder. Images were analyzed by Inveon Research Workstation (Siemens Medical Solutions USA Inc., PA). Analysis for each rat was done with regions of interest (ROIs) drawn onto each whole lung and a section of the liver using the co-registered transmission images. […]

[2] = molecular target: LPA1 (Rattus norvegicus, UniProt P61794); experiment: as above; conditions: for Lung uptake (% ID/g) @ 60-90 min: baseline PET scan, listed as [^18F]-(1S,3S)-3-(6-(5-((((4-(fluoro)butyl)(methyl)carbamoyl)oxy)methyl)-1-meth))
Experimental: as §1

[3] = Radio-metabolism, fraction intact post-injection; format: in vivo; conditions: at the 90 minute post-injection

Chain of LPA1 (P61794 whole entry): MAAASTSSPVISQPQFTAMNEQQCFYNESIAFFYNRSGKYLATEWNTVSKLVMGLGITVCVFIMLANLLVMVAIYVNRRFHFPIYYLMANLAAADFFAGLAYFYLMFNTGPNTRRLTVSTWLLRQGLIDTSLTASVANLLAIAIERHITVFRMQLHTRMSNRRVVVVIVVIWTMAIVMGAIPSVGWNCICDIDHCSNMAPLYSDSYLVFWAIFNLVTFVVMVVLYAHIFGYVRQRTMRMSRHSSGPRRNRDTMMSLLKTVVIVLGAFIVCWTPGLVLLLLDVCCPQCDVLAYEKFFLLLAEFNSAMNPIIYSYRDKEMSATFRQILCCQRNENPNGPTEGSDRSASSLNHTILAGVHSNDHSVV

tissue uptake ([1]; bleomycin treated rats (Group 2, n=4), baseline, 60-90 minutes post injection, read-out: mean and standard error of radiotracer uptake in lung tissue): 0.116 %ID/g | tissue uptake ([1]; individual bleomycin treated rats (Group 2), baseline PET scan, 14 days post bleomycin, read-out: Lung uptake (% ID/g) @ 60-90 min): 0.116 %ID/g | tissue uptake ([1]; individual wild type rats (Group 1), baseline PET scan, read-out: Lung uptake (% ID/g) @ 60-90 min): 0.085 %ID/g | tissue uptake ([1]; wild type rats (Group 1, n=4), baseline, 60-90 minutes post injection, read-out: mean and standard error of radiotracer uptake in lung tissue): 0.08 %ID/g | increase in the lung radioligand signal in disease induced model vs wild type animals ([2]; bleomycin treated vs wild type rats, baseline, p<0.05): 46% | radio-metabolism, intact [3]: 80%
SMILES: Cc1nc(-c2nnn(C)c2COC(=O)N(C)CCCC[18F])ccc1O[C@H]1CCC[C@H](C(=O)O)C1 [Example 16]
Lung uptake (% ID/g) @ 60-90 min ([2]; individual bleomycin treated rats (Group 2), 14 days post bleomycin): 0.142 % ID/g and 0.118 % ID/g and 0.088 % ID/g | Lung uptake (% ID/g) @ 60-90 min ([2]; individual wild type rats (Group 1)): 0.075 % ID/g and 0.063 % ID/g and 0.095 % ID/g
